Literature values, collected in patent US20050113271A1, “Automatic dishwashing detergent with improved glass anti-corrosion properties II” (priority 2002, published 2005).
Where two headings read alike, the source gives them in different places.

**Q.** With `[Cl-].[Cl-].[Zn+2]` [Zinc chloride] as the compound, how does the Solubility (25° C.) read?
**A.** 4320 g/l (25° C.)

**Q.** With Zinc acetylacetonate as the compound, how does the Solubility (20° C.) read?
**A.** 4 g/l (20° C.)

**Q.** For Zinc hydroxycarbonate, which “Solubility (in words)” value (20° C.) is on record?
**A.** Virtually insoluble (20° C.)
